In BindingDB's records for doi:10.1016/j.bmcl.2008.10.104 (Taisho Pharmaceutical, 2008):
Residues, ends and D or L forms follow the SMILES beside them.

How the values were obtained:
[1] = target: Sodium- and chloride-dependent glycine transporter 2 (Rattus norvegicus) (UniProt P58295); test: Inhibition of [3H]glycine uptake at rat glycine transporter 2 expressed in african green monkey COS7 cells
[2] = target: Sodium- and chloride-dependent glycine transporter 1 (Rattus norvegicus); test: Inhibition of [3H]glycine uptake at rat glycine transporter 1 expressed in african green monkey COS7 cells

Sequence of Sodium- and chloride-dependent glycine transporter 2 (Rattus norvegicus) (P58295 whole entry, looked up): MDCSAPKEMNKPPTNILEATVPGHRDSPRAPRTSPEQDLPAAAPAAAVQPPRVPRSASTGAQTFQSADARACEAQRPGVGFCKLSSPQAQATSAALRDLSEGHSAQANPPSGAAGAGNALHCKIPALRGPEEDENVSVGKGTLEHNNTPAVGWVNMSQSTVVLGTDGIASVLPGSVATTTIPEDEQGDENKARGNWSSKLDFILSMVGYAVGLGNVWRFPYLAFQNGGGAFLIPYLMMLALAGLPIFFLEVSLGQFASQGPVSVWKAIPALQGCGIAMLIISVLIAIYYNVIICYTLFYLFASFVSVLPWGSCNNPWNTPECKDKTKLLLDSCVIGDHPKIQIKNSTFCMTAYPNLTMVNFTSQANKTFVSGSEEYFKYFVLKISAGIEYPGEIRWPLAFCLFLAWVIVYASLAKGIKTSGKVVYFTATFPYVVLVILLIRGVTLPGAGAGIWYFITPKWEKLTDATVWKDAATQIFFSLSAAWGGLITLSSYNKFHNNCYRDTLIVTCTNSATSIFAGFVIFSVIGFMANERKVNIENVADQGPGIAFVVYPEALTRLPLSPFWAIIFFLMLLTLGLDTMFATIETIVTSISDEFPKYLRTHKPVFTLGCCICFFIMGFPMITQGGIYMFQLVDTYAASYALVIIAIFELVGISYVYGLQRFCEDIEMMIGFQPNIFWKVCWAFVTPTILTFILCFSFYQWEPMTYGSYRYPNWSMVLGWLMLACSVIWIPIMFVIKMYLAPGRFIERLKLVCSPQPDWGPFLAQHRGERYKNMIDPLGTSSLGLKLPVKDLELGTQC

Structure (SMILES) | IC50 [1] | IC50 [2]
N[C@@H](COC(c1cccc(F)c1)c1ccccc1OCc1ccccc1)C(=O)O (stereo partly drawn) [(2S)-2-amino-3-((2-(benzyloxy)phenyl)(3-fluorophenyl)methoxy)propanoic acid] | 21.1 nM | –
CC[C@H](C)[C@@H]1NC(=O)[C@H](Cc2ccccc2)NC(=O)[C@H]([C@H](C)[C@@H](C)O)NC(=O)[C@H](C(C)C)NC1=O [(3S,6S,9S,12S)-3-benzyl-12-sec-butyl-6-((2S,3R)-3-hydroxybutan-2-yl)-9-isopropyl-1,4,7,10-tetraazacyclododecane-2,5,8,11-tetraone] | 574 nM | 10.2 nM
CC(C)[C@@H]1NC(=O)[C@H](Cc2ccccc2)NC(=O)[C@H]([C@H](C)[C@@H](C)O)NC(=O)[C@H](C(C)C)NC1=O [(3S,6S,9S,12S)-3-benzyl-6-((2S,3R)-3-hydroxybutan-2-yl)-9,12-diisopropyl-1,4,7,10-tetraazacyclododecane-2,5,8,11-tetraone] | 542 nM | 11.1 nM
CC[C@H](C)[C@@H]1NC(=O)[C@H](Cc2ccccc2)NC(=O)[C@H]([C@H](CS(=O)(=O)O)C(C)=O)NC(=O)[C@H]([C@@H](C)CC)NC1=O [(S)-2-((2S,5S,8S,11S)-5-benzyl-8,11-di-sec-butyl-3,6,9,12-tetraoxo-1,4,7,10-tetraazacyclododecan-2-yl)-3-oxobutane-1-sulfonic acid] | 2260 nM | 20.4 nM
CC[C@H](C)[C@@H]1NC(=O)[C@H](Cc2ccccc2)NC(=O)[C@H]([C@H](C)[C@@H](C)O)NC(=O)[C@H]([C@@H](C)CC)NC1=O [(3S,6S,9S,12S)-3-benzyl-9,12-di-sec-butyl-6-((2S,3R)-3-hydroxybutan-2-yl)-1,4,7,10-tetraazacyclododecane-2,5,8,11-tetraone] | 278 nM | 3 nM
CC[C@H](C)[C@@H]1NC(=O)[C@H](C(C)C)NC(=O)[C@H](Cc2ccccc2)NC(=O)[C@H]([C@H](C)[C@@H](C)O)NC1=O [(3S,6S,9S,12S)-3-benzyl-9-sec-butyl-6-((2S,3R)-3-hydroxybutan-2-yl)-12-isopropyl-1,4,7,10-tetraazacyclododecane-2,5,8,11-tetraone] | 450 nM | –
CC[C@H](C)[C@@H]1NC(=O)[C@H](Cc2ccccc2)NC(=O)[C@H]([C@@H](C)CC)NC(=O)[C@H]([C@@H](C)CC)NC1=O [(3S,6S,9S,12S)-3-benzyl-6,9,12-tri-sec-butyl-1,4,7,10-tetraazacyclododecane-2,5,8,11-tetraone] (cyclo(FIII)) | 226 nM | –
